Values of other authors in patent US20240122968A1, “ENHANCED NITRATE COMPOSITIONS AND METHODS OF USE” (ThermoLife International, LLC, priority 2019, published 2024).
Where two headings read alike, the source gives them in different places.

Test system: blood pressure

Row | Compound | effect on blood pressure (high doses) | effect on blood pressure (even at doses of 1.5 g per day (Weinberger et al.))
1 | [Zn] [Zinc] | increase blood pressure | 
2 | [Ca+2] [calcium] |  | no notable effects on blood pressure
